Measurements published in US4968672A, “Adenosine receptor prodrugs” (priority 1987, dated 1990).
Like-named read-outs stand apart in the source and are kept apart here. One block for each compound: values may come before it.

Assays:
[1] = test system: blood brain barrier / central nervous system; assay: brain entry / central side effects
[2] = test system: renin release; assay: renin release by the kidney; assay type: in vivo
[3] = test system: adenosine receptors; assay: adenosine agonist activity
[4] = test system: adenosine receptors (kidney and non-renal vasculature); assay: blood pressure and sodium excretion in CHA-treated rats (Table 4); assay type: in vivo, rat
Description: ^1 CHA = N^6 -cyclohexyladenosine administered as a constant
infusion of 10 nanmoles/min./kg. Total dose administered over 45 min. was
approximately […] (= relatively high dose).
^2 Xanthine antagonists were administered in a bolus injection of 0.2
umoles/kg followed by an infusion of 2 nanamoles per kg/min.

[5] = test system: adenosine receptors (glomerular filtration rate); assay: glomerular filtration rate after N6-cyclohexyladenosine in rats; assay type: in vivo, rat
[6] = test system: acute renal failure; assay: acute renal failure models (ischemia, glycerol injection); assay type: in vivo; details: compared with theophylline and 8-phenyltheophylline
[7] = molecular target: T1, A1 adenosine receptors (Rattus norvegicus, UniProt P25099); assay: membrane binding assay at A1 adenosine receptors (Tables 1 and 2)
T1 construct: rat cerebral cortex membranes; from tissue; host or cells: rat cerebral cortex membranes
T1 sequence (P25099 1-326): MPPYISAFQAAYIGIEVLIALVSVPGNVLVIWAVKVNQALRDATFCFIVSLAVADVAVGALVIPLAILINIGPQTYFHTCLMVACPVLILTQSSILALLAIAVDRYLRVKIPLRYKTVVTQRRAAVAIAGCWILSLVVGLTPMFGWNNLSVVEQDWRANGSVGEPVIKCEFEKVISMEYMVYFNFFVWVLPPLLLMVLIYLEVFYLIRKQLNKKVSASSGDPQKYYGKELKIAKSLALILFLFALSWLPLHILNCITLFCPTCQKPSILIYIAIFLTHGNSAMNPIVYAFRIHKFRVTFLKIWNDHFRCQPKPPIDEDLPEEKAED
Text: Table 2 lists prodrugs (including Routes A and B of FIG. 2) and chemical intermediates, based on xanthine and adenosine functionalized congener and the method of synthesis. The potency of each compound at A1 adenosine receptors is indicated by the Ki (inverse relationship to potency) in a membrane binding assay.

[8] = molecular target: T2, A2 receptor (Homo sapiens, UniProt P29274); assay: antagonism of NECA-induced stimulation of adenylate cyclase activity in human platelet membranes; assay type: biochemical; details: antagonism of NECA-stimulated adenylate cyclase, human platelet membranes; means with 95% confidence limits from 3 experiments; read-out: A2 receptor KB
T2 construct: human platetlet membranes; from tissue; host or cells: human platelet membranes
T2 sequence (P29274 whole entry): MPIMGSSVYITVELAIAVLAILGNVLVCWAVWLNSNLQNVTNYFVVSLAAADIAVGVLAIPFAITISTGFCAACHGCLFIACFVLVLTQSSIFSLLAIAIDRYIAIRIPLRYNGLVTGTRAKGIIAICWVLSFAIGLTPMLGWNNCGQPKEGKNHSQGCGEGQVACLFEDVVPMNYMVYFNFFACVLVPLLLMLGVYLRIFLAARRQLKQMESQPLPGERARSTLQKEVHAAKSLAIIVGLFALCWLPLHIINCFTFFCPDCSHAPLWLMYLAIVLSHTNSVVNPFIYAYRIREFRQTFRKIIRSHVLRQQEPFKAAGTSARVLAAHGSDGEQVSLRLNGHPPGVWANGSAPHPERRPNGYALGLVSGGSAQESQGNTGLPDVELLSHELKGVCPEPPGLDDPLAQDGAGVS
Description: Measurements of the potencies of the xanthines as antagonists of NECA-induced stimulation of adenylate cyclase activity in human platetlet membranes and as inhibitors of [^3 H]PIA binding to rat cerebral cortex membranes were carried out as reported previously.

[9] = stability to enzymatic hydrolysis; assay type: in vitro ADME
[10] = test system: A2 adenosine receptors; assay: reversal of 2-chloroadenosine-stimulated cyclic AMP production in guinea pig brain slices; assay type: cell-based; details: amino acid conjugates of 1a
Text: […]. As modifications of these xanthines designed to increases A2 -potency we have explored changing the size of the 1,3-dialkyl groups and incorporating distal amino groups in the functionalized 8-phenyl moiety.

[11] = solubility; assay type: physicochemical
[12] = test system: A1-receptors; details: cited from earlier work
[13] = CHA infusion 10 nmol/min/kg, antagonists 0.2 umoles/kg bolus then 2 nmol/kg/min

Structure (SMILES): NCCNC(=O)Cc1ccc(NC(=O)Cc2ccc(Nc3ncnc4c3ncn4[C@@H]3O[C@H](CO)[C@@H](O)[C@H]3O)cc2)cc1 [Compound 1b]
entry into the brain / passage across the blood brain barrier [1]: excluded from passage across the blood brain barrier
renin release by the kidney [2]: a decrease in renin release by the kidney
adenosine agonist potency in vitro and in vivo [3]: highly potent as an adenosine agonist in vitro and in vivo

Ki ([7]; Table 1, prodrug before cleavage, read-out: Ki(nM) at A1 Before Cleavage): 240 nM
Ki ([7]; Table 2, read-out: Ki (A1(nM))): 240 nM
Structure (SMILES): CCCn1c(=O)c2[nH]c(-c3ccc(OCC(=O)NCCNC(=O)CC[C@H](NC(C)=O)C(=O)O)cc3)nc2n(CCC)c1=O [Compound 17, N-Acetyl-glutamic acid (gamma XAC)]
reversal of hypotensive effect of adenosine agonists (non-renal vasculature) [4]: not by the prodrug, 17
Sodium excretion [4, 13]: 2.12 ± 0.36 uEq/min/kg
b.p. [4, 13]: 103.5 ± 3.5 mmHg
reversal of the effect of the adenosine agonist on glomerular filtration rate ([5]; XAC I.V. 5-50 ug/kg): even greater return of glomerular filtration rate than did XAC
% of normal glomerular filtration rate (after) ([5]; dose 10 × low, after xanthine, CHA-treated rats): 84.8%
% of normal glomerular filtration rate (before) ([5]; dose 10 × low, before xanthine, CHA-treated rats): 48%
central side effects [1]: side effects of the xanthine acting as a central stimulant are not observed
entry into the brain / passage across the blood brain barrier [1]: entry into the brain is impeded
effect in acute renal failure [6]: act in the same manner except for considerably greater potency and selectivity

Kb [8]: 0.037 µM
stability to enzymatic hydrolysis [9]: stability to enzymatic hydrolysis
potency [10]: high potency
water solubility [11]: high water solubility
Structure (SMILES): CCCn1c(=O)c2[nH]c(-c3ccc(OCC(=O)NCCNC(=O)[C@H](N)CCCCN)cc3)nc2n(CCC)c1=O [Compound 61c]

Structure (SMILES): CCCn1c(=O)c2[nH]c(-c3ccc(OCC(=O)NCCN)cc3)nc2n(CCC)c1=O [[^3 H]XAC]
affinity compared with [3H]DPX [12]: higher affinity
